Results as given in ChEMBL document CHEMBL1152547, “Synthesis and evaluation of anticancer activity of 2-arylamino-6-trifluoromethyl-3-(hydrazonocarbonyl)pyridines” (Bioorg Med Chem, 2009).

Experiments:
BT-549 = experiment: Cytotoxicity against human BT549 cells after 48 hrs by sulforhodamine B assay; format: functional; settings: BT-549, 48 h
[1] = Toxicity in ip dosed athymic mouse assessed as lethality administered as single dose measured after 2 weeks; format: organism-based; settings: in vivo
EKVX = experiment: Cytotoxicity against human EKVX cells after 48 hrs by sulforhodamine B assay; format: functional
[2] = Toxicity in ip dosed athymic mouse assessed as body weight loss administered as single dose measured after 2 weeks; format: organism-based; settings: in vivo
HOP-92 = experiment: Cytotoxicity against human HOP92 cells after 48 hrs by sulforhodamine B assay; format: functional; settings: HOP-92, 48 h
CAKI-1 = experiment: Cytotoxicity against human Caki1 cells after 48 hrs by sulforhodamine B assay; format: functional; settings: CAKI-1, 48 h
T47D = experiment: Cytotoxicity against human T47D cells after 48 hrs by sulforhodamine B assay; format: functional
MCF7 = experiment: Cytotoxicity against human MCF7 cells after 48 hrs by sulforhodamine B assay; format: functional; settings: MCF7, 48 h
[3] = Cytotoxicity against human NCI60 cells assessed as cell growth at 10 uM after 48 hrs by sulforhodamine B assay; format: functional; settings: NCI60, 48 h, read-out: Activity
TK-10 = experiment: Cytotoxicity against human TK10 cells after 48 hrs by sulforhodamine B assay; format: functional; settings: TK-10, 48 h
MDA-MB-231 = experiment: Cytotoxicity against human MDA-MB-231 cells after 48 hrs by sulforhodamine B assay; format: functional; settings: MDA-MB-231, 48 h
SF-295 = experiment: Cytotoxicity against human SF295 cells after 48 hrs by sulforhodamine B assay; format: functional; settings: SF-295, 48 h
NCI-H226 = experiment: Cytotoxicity against human NCI-H226 cells after 48 hrs by sulforhodamine B assay; format: functional; settings: NCI-H226, 48 h
PC-3 = experiment: Cytotoxicity against human PC3 cells after 48 hrs by sulforhodamine B assay; format: functional; settings: PC-3, 48 h
[4] = Cytotoxicity against human NCI60 cells after 48 hrs by sulforhodamine B assay; format: functional; settings: NCI60, 48 h, read-out: pTGI (converted)
MDA-MB-468 = experiment: Cytotoxicity against human MDA-MB-468 cells after 48 hrs by sulforhodamine B assay; format: functional; settings: MDA-MB-468, 48 h

With `Cc1cc(Cl)ccc1Nc1nc(C(F)(F)F)ccc1C(=O)N/N=C/c1c(Cl)cccc1Cl` the GI50 (BT-549) was 0.195 µM, the TGI (BT-549; read-out: pTGI (converted)) was 0.676 µM and the MTD at 336 h [1] was 400 mg/kg. It also gave a GI50 (EKVX) of 0.195 µM, a TGI (EKVX; read-out: pTGI (converted)) of 0.708 µM and an MTD at 336 h [2] of 400 mg/kg. For the same compound, the GI50 (HOP-92) was 0.191 µM, the TGI (HOP-92; read-out: pTGI (converted)) was 0.537 µM and the GI50 (CAKI-1) was 0.0126 µM. For the same compound, the CC50 (CAKI-1; read-out: pLC50 (the source's name) (converted)) was 43.7 µM, the TGI (CAKI-1; read-out: pTGI (converted)) was 0.324 µM and the GI50 (T47D) was 0.224 µM. For the same compound, the TGI (T47D; read-out: pTGI (converted)) was 0.794 µM, the GI50 (MCF7) was 0.234 µM and the TGI (MCF7; read-out: pTGI (converted)) was 0.741 µM. The growth at 10 µM [3] was -6.89%, the GI50 (TK-10) was 0.224 µM and the TGI (TK-10; read-out: pTGI (converted)) was 0.794 µM. The GI50 (MDA-MB-231) was 0.155 µM, the TGI (MDA-MB-231; read-out: pTGI (converted)) was 0.851 µM and the GI50 (SF-295) was 0.024 µM. The TGI (SF-295; read-out: pTGI (converted)) was 0.295 µM, the GI50 (NCI-H226) was 0.135 µM and the TGI (NCI-H226; read-out: pTGI (converted)) was 0.525 µM. For the same compound, the GI50 (PC-3) was 0.229 µM, the TGI (PC-3; read-out: pTGI (converted)) was 0.871 µM and the TGI [4] was 11.7 µM. The GI50 (MDA-MB-468) was 0.275 µM and the TGI (MDA-MB-468; read-out: pTGI (converted)) was 0.851 µM.
